{
  "source": "patent US12391648B2",
  "about": "“Pyridyloxy thioester derivative and preparation method therefor, herbicidal composition, and application” (Qingdao Kingagroot Chemical Compound Co., Ltd., priority 2018, dated 2025)",
  "data": [
    {"system": "Monochoria vaginalis", "assay": "Weed control effect evaluation in rice field", "type": "in vivo", "conditions": "1000 g/ha, paddy water application at 0.5 leaf stage, 14 days after treatment, weeds resistant to pyrazosulfuron-ethyl and penoxsulam", "from_the_text": "(§1) The activity level standard of harmful plants destruction (i. e. growth inhibition rate) is as follows: • Level 5: the growth inhibition rate is greater than 85%; • Level 4: the growth inhibition rate is equal to or greater than 60% and less than 85%; • Level 3: the growth inhibition rate is equal to or greater than 40% and less than 60%; • Level 2: the growth inhibition rate is equal to or greater than 20% and less than 40%; • Level 1: the growth inhibition rate is equal to or greater than 5% and less than 20%; • Level 0: the growth inhibition rate is less than 5%;\n(§2) Transplanted rice safety evaluation and weed control effect evaluation in rice field:\nRice field soil was loaded into a 1/1,000,000 ha pot. The seeds of Monochoria vaginalis were sowed and gently covered with soil, then left to stand still in greenhouse in the state of 0.5-1 cm of water storage. It was kept at 3-4 cm of water storage thereafter. The weeds were treated by dripping the WP or SC water diluents prepared according to the common preparation method of the compounds of the present invention with pipette homogeneously to achieve specified effective amount when Monochoria vaginalis reached 0. 5 leaf stage.\n(§3) The fertility condition of Monochoria vaginalis 14 days and rice 21 days after the treatment of the compound of the invention with the naked eye.\nNote: The seeds of Monochoria vaginalis were collected from Heilongjing Province of China.", "values": [
      {"smiles": "COC(=O)OC(C)SC(=O)C(C)Oc1nc(F)c(Cl)c(N)c1Cl", "note": "(stereo not drawn) [Compound 98]", "Monochoria Vaginalis, activity standard level 0-5": "5 (Level 5: the growth inhibition rate is greater than 85%)"},
      {"smiles": "CSC(=O)C(C)Oc1ncc(Cl)c(N)c1Cl", "note": "(stereo not drawn) [Compound 3]", "Monochoria Vaginalis, activity standard level 0-5": "5 (Level 5: the growth inhibition rate is greater than 85%)"}
    ]},
    {"system": "Japonica rice", "assay": "Post-emergence test experiment (Table 4), crop safety", "type": "in vivo", "conditions": "600 g/ha active ingredient, plus water 450 kg/ha, after 3 weeks", "from_the_text": "as §1\n(§4) The above described growth inhibition rate is fresh weight inhibition rate.\n(§5) Post-emergence test experiment: Monocotyledonous and dicotyledonous weed seeds and main crop seeds (i. e. wheat, corn, rice, soybean, cotton, oilseed, millet and sorghum.) were put into a plastic pot loaded with soil. Then covered with 0.5-2 cm soil, the seeds were allowed to grow in good greenhouse environment. The test plants were treated at 2-3 leaf stage 2 weeks after sowing. The test compounds of the invention were dissolved with acetone respectively, then added with tween-80, and using 1.5 liters per hectare of an emulsible concentrate of methyl oleate as a synergist, and diluted by certain amount of water to certain concentration. The solution was sprayed to the plants with a sprayer. Then the plants were cultured for 3 weeks in the greenhouse, and the experiment result of weed controlling effect after 3 weeks was listed in tables 3-4.\n(§6) […] Echinochloa crusgalli and Cyperus iria were collected from Ningxia Hui Autonomous Region of China, which had evolved resistance to ALS inhibiting herbicides. • Control compound A:", "values": [
      {"smiles": "COC(=O)OC(C)SC(=O)C(C)Oc1nc(F)c(Cl)c(N)c1Cl", "note": "(stereo not drawn) [Compound 98]", "Japonica rice, activity level (growth inhibition rate)": "0 (Level 0: the growth inhibition rate is less than 5%)"},
      {"smiles": "CSC(=O)C(C)Oc1ncc(Cl)c(N)c1Cl", "note": "(stereo not drawn) [Compound 3]", "Japonica rice, activity level (growth inhibition rate)": "0 (Level 0: the growth inhibition rate is less than 5%)"}
    ]},
    {"system": "Indica rice", "assay": "Post-emergence test experiment (Table 4), crop safety", "type": "in vivo", "conditions": "600 g/ha active ingredient, plus water 450 kg/ha, after 3 weeks", "from_the_text": "as §1, §4, §5, §6", "values": [
      {"smiles": "COC(=O)OC(C)SC(=O)C(C)Oc1nc(F)c(Cl)c(N)c1Cl", "note": "(stereo not drawn) [Compound 98]", "Indica rice, activity level (growth inhibition rate)": "0 (Level 0: the growth inhibition rate is less than 5%)"},
      {"smiles": "CSC(=O)C(C)Oc1ncc(Cl)c(N)c1Cl", "note": "(stereo not drawn) [Compound 3]", "Indica rice, activity level (growth inhibition rate)": "0 (Level 0: the growth inhibition rate is less than 5%)"}
    ]},
    {"system": "rice (japonica rice)", "assay": "Transplanted rice safety evaluation", "type": "in vivo", "conditions": "1000 g/ha, transplanted 3-leaf stage japonica rice, treated 5 days after transplantation, 21 days after treatment", "from_the_text": "as §1, §2\nIn addition, the rice field soil that loaded into the 1/1,000,000 ha pot was leveled to keep water storage at 3-4 cm depth. The 3-leaf stage rice (japonica rice) was transplanted at 3 cm of transplanting depth the next day. The compound of the present invention was treated by the same way after 5 days of transplantation.\nas §3", "values": [
      {"smiles": "COC(=O)OC(C)SC(=O)C(C)Oc1nc(F)c(Cl)c(N)c1Cl", "note": "(stereo not drawn) [Compound 98]", "Rice, activity standard level 0-5 (safety)": "0 (Level 0: the growth inhibition rate is less than 5%)"},
      {"smiles": "CSC(=O)C(C)Oc1ncc(Cl)c(N)c1Cl", "note": "(stereo not drawn) [Compound 3]", "Rice, activity standard level 0-5 (safety)": "0 (Level 0: the growth inhibition rate is less than 5%)"}
    ]},
    {"system": "Leptochloa chinensis", "assay": "Post-emergence test experiment (Table 3, 1000 g/ha)", "type": "in vivo", "conditions": "post-emergence spray, after 3 weeks, fresh weight inhibition", "in_short": "(§7)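 Activity graded levels 0-5 by fresh-weight inhibition (level 5 above 85%, level 0 below 5%), assessed 3 weeks after treatment. Plants grown in greenhouse pots were sprayed post-emergence at 2-3 leaves using acetone/tween-80 solutions with methyl oleate synergist (1.5 L/ha).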", "values": [
      {"smiles": "COC(=O)OC(C)SC(=O)C(C)Oc1nc(F)c(Cl)c(N)c1Cl", "note": "(stereo not drawn) [Compound 98]", "Activity level (growth inhibition rate) Leptochloa chinensis": "5 (Level 5: the growth inhibition rate is greater than 85%)"},
      {"smiles": "CSC(=O)C(C)Oc1ncc(Cl)c(N)c1Cl", "note": "(stereo not drawn) [Compound 3]", "Activity level (growth inhibition rate) Leptochloa chinensis": "5 (Level 5: the growth inhibition rate is greater than 85%)"}
    ]},
    {"system": "Monochoria vaginalis", "assay": "Post-emergence test experiment (Table 3, 1000 g/ha)", "type": "in vivo", "conditions": "post-emergence spray, after 3 weeks, fresh weight inhibition", "in_short": "as §7", "values": [
      {"smiles": "COC(=O)OC(C)SC(=O)C(C)Oc1nc(F)c(Cl)c(N)c1Cl", "note": "(stereo not drawn) [Compound 98]", "Activity level (growth inhibition rate) Monochoria Vaginalis": "5 (Level 5: the growth inhibition rate is greater than 85%)"},
      {"smiles": "CSC(=O)C(C)Oc1ncc(Cl)c(N)c1Cl", "note": "(stereo not drawn) [Compound 3]", "Activity level (growth inhibition rate) Monochoria Vaginalis": "5 (Level 5: the growth inhibition rate is greater than 85%)"}
    ]},
    {"system": "Digitaria sanguinalis", "assay": "Post-emergence test experiment (Table 3, 1000 g/ha)", "type": "in vivo", "conditions": "post-emergence spray, after 3 weeks, fresh weight inhibition", "in_short": "as §7", "values": [
      {"smiles": "COC(=O)OC(C)SC(=O)C(C)Oc1nc(F)c(Cl)c(N)c1Cl", "note": "(stereo not drawn) [Compound 98]", "Activity level (growth inhibition rate) Digitaria sanguinalis": "5 (Level 5: the growth inhibition rate is greater than 85%)"},
      {"smiles": "CSC(=O)C(C)Oc1ncc(Cl)c(N)c1Cl", "note": "(stereo not drawn) [Compound 3]", "Activity level (growth inhibition rate) Digitaria sanguinalis": "5 (Level 5: the growth inhibition rate is greater than 85%)"}
    ]},
    {"system": "Abutilon theophrasti", "assay": "Post-emergence test experiment (Table 3, 1000 g/ha)", "type": "in vivo", "conditions": "post-emergence spray, after 3 weeks, fresh weight inhibition", "in_short": "as §7", "values": [
      {"smiles": "COC(=O)OC(C)SC(=O)C(C)Oc1nc(F)c(Cl)c(N)c1Cl", "note": "(stereo not drawn) [Compound 98]", "Activity level (growth inhibition rate) Abutilon theophrasti": "5 (Level 5: the growth inhibition rate is greater than 85%)"},
      {"smiles": "CSC(=O)C(C)Oc1ncc(Cl)c(N)c1Cl", "note": "(stereo not drawn) [Compound 3]", "Activity level (growth inhibition rate) Abutilon theophrasti": "5 (Level 5: the growth inhibition rate is greater than 85%)"}
    ]},
    {"system": "Galium spurium", "assay": "Post-emergence test experiment (Table 3, 1000 g/ha)", "type": "in vivo", "conditions": "post-emergence spray, after 3 weeks, fresh weight inhibition", "in_short": "as §7", "values": [
      {"smiles": "COC(=O)OC(C)SC(=O)C(C)Oc1nc(F)c(Cl)c(N)c1Cl", "note": "(stereo not drawn) [Compound 98]", "Activity level (growth inhibition rate) Galium spurium": "5 (Level 5: the growth inhibition rate is greater than 85%)"},
      {"smiles": "CSC(=O)C(C)Oc1ncc(Cl)c(N)c1Cl", "note": "(stereo not drawn) [Compound 3]", "Activity level (growth inhibition rate) Galium spurium": "5 (Level 5: the growth inhibition rate is greater than 85%)"}
    ]},
    {"system": "Setaria viridis", "assay": "Post-emergence test experiment (Table 3, 1000 g/ha)", "type": "in vivo", "conditions": "post-emergence spray, after 3 weeks, fresh weight inhibition", "in_short": "as §7", "values": [
      {"smiles": "COC(=O)OC(C)SC(=O)C(C)Oc1nc(F)c(Cl)c(N)c1Cl", "note": "(stereo not drawn) [Compound 98]", "Activity level (growth inhibition rate) Setaria viridis": "5 (Level 5: the growth inhibition rate is greater than 85%)"},
      {"smiles": "CSC(=O)C(C)Oc1ncc(Cl)c(N)c1Cl", "note": "(stereo not drawn) [Compound 3]", "Activity level (growth inhibition rate) Setaria viridis": "5 (Level 5: the growth inhibition rate is greater than 85%)"}
    ]},
    {"system": "ALS resistant Cyperus iria", "assay": "Post-emergence test experiment (Table 4), weed control", "type": "in vivo", "conditions": "600 g/ha active ingredient, plus water 450 kg/ha, after 3 weeks", "from_the_text": "as §1, §4, §5, §6", "values": [
      {"smiles": "COC(=O)OC(C)SC(=O)C(C)Oc1nc(F)c(Cl)c(N)c1Cl", "note": "(stereo not drawn) [Compound 98]", "ALS resistant Cyperus iria, activity level (growth inhibition rate)": "5 (Level 5: the growth inhibition rate is greater than 85%)"},
      {"smiles": "CSC(=O)C(C)Oc1ncc(Cl)c(N)c1Cl", "note": "(stereo not drawn) [Compound 3]", "ALS resistant Cyperus iria, activity level (growth inhibition rate)": "5 (Level 5: the growth inhibition rate is greater than 85%)"}
    ]},
    {"system": "ALS resistant Echinochloa crusgalli", "assay": "Post-emergence test experiment (Table 4), weed control", "type": "in vivo", "conditions": "600 g/ha active ingredient, plus water 450 kg/ha, after 3 weeks", "from_the_text": "as §1, §4, §5, §6", "values": [
      {"smiles": "COC(=O)OC(C)SC(=O)C(C)Oc1nc(F)c(Cl)c(N)c1Cl", "note": "(stereo not drawn) [Compound 98]", "ALS resistant Echinochloa crusgalli, activity level (growth inhibition rate)": "5 (Level 5: the growth inhibition rate is greater than 85%)"},
      {"smiles": "CSC(=O)C(C)Oc1ncc(Cl)c(N)c1Cl", "note": "(stereo not drawn) [Compound 3]", "ALS resistant Echinochloa crusgalli, activity level (growth inhibition rate)": "5 (Level 5: the growth inhibition rate is greater than 85%)"}
    ]}
  ]
}
